According to patent US8192962B2, “Processes for detecting toxic substances” (Daikin Industries, Ltd., priority 2001, dated 2012):

Tested on: Energy system protein genes
Experiment: DNA chip mRNA expression in yeast, energy system protein genes (Table 4)
Assay type: cell-based, Saccharomyces cerevisiae S288C
Summary of the method: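 S. cerevisiae S288C grown at 25° C. in YPD to log phase, then exposed 2 h to a toxicant at a growth-inhibiting, non-lethal concentration; untreated cells as control. Poly(A) mRNA reverse-transcribed with Cy3-dUTP or Cy5-dUTP, hybridized >12 h at 65° C. to whole-genome yeast DNA chip; value = fluorescence ratio treated/untreated.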

Oc1cc(Cl)c(Cl)cc1Cl [(6), 2,4,5-trichlorophenol]
The level of expressed mRNA in the presence of chemical substance/The level of expressed mRNA in the absence of chemical substance (yeast gene YJR048W): 0.5
The level of expressed mRNA in the presence of chemical substance/The level of expressed mRNA in the absence of chemical substance (yeast gene YJR121W, cells incubated two hours with the chemical substance): 1.5
The level of expressed mRNA in the presence of chemical substance/The level of expressed mRNA in the absence of chemical substance (yeast gene YJR155W): 1.4
The level of expressed mRNA in the presence of chemical substance/The level of expressed mRNA in the absence of chemical substance (yeast gene YKL016C, cells incubated two hours with the chemical substance): 0.8
The level of expressed mRNA in the presence of chemical substance/The level of expressed mRNA in the absence of chemical substance (yeast gene YKL035W): 1.2
The level of expressed mRNA in the presence of chemical substance/The level of expressed mRNA in the absence of chemical substance (yeast gene YKL060C, cells incubated two hours with the chemical substance): 1.3
The level of expressed mRNA in the presence of chemical substance/The level of expressed mRNA in the absence of chemical substance (yeast gene YKL141W, cells incubated two hours with the chemical substance): 1.2
The level of expressed mRNA in the presence of chemical substance/The level of expressed mRNA in the absence of chemical substance (yeast gene YKL148C, cells incubated two hours with the chemical substance): 0.5
The level of expressed mRNA in the presence of chemical substance/The level of expressed mRNA in the absence of chemical substance (yeast gene YKL152C): 1.6
The level of expressed mRNA in the presence of chemical substance/The level of expressed mRNA in the absence of chemical substance (yeast gene YKR009C, cells incubated two hours with the chemical substance): 1.8
The level of expressed mRNA in the presence of chemical substance/The level of expressed mRNA in the absence of chemical substance (yeast gene YKR058W, cells incubated two hours with the chemical substance, 25° C., YPD medium): 1.4
The level of expressed mRNA in the presence of chemical substance/The level of expressed mRNA in the absence of chemical substance (yeast gene YKR097W): 1.7
The level of expressed mRNA in the presence of chemical substance/The level of expressed mRNA in the absence of chemical substance (yeast gene YLL041C, cells incubated two hours with the chemical substance): 1.2
The level of expressed mRNA in the presence of chemical substance/The level of expressed mRNA in the absence of chemical substance (yeast gene YLR038C, cells incubated two hours with the chemical substance): 1.2
The level of expressed mRNA in the presence of chemical substance/The level of expressed mRNA in the absence of chemical substance (yeast gene YLR044C, cells incubated two hours with the chemical substance): 1.5
The level of expressed mRNA in the presence of chemical substance/The level of expressed mRNA in the absence of chemical substance (yeast gene YLR134W, cells incubated two hours with the chemical substance): 2.5
The level of expressed mRNA in the presence of chemical substance/The level of expressed mRNA in the absence of chemical substance (yeast gene YLR258W, cells incubated two hours with the chemical substance): 1.8
The level of expressed mRNA in the presence of chemical substance/The level of expressed mRNA in the absence of chemical substance (yeast gene YLR284C, cells incubated two hours with the chemical substance): 0.9
The level of expressed mRNA in the presence of chemical substance/The level of expressed mRNA in the absence of chemical substance (yeast gene YLR295C, cells incubated two hours with the chemical substance, 25° C., YPD medium): 1.1
The level of expressed mRNA in the presence of chemical substance/The level of expressed mRNA in the absence of chemical substance (yeast gene YLR304C, cells incubated two hours with the chemical substance): 1.9
The level of expressed mRNA in the presence of chemical substance/The level of expressed mRNA in the absence of chemical substance (yeast gene YLR345W): 1.6
The level of expressed mRNA in the presence of chemical substance/The level of expressed mRNA in the absence of chemical substance (yeast gene YLR354C, cells incubated two hours with the chemical substance): 1.5
The level of expressed mRNA in the presence of chemical substance/The level of expressed mRNA in the absence of chemical substance (yeast gene YLR377C, cells incubated two hours with the chemical substance): 0.7
The level of expressed mRNA in the presence of chemical substance/The level of expressed mRNA in the absence of chemical substance (yeast gene YLR395C, cells incubated two hours with the chemical substance): 0.4
The level of expressed mRNA in the presence of chemical substance/The level of expressed mRNA in the absence of chemical substance (yeast gene YML054C): 1.8
The level of expressed mRNA in the presence of chemical substance/The level of expressed mRNA in the absence of chemical substance (yeast gene YML087C): 0.9
The level of expressed mRNA in the presence of chemical substance/The level of expressed mRNA in the absence of chemical substance (yeast gene YML100W): 2.8
The level of expressed mRNA in the presence of chemical substance/The level of expressed mRNA in the absence of chemical substance (yeast gene YML120C, cells incubated two hours with the chemical substance): 0.6
The level of expressed mRNA in the presence of chemical substance/The level of expressed mRNA in the absence of chemical substance (yeast gene YML125C): 1.3
The level of expressed mRNA in the presence of chemical substance/The level of expressed mRNA in the absence of chemical substance (yeast gene YML129C, cells incubated two hours with the chemical substance): 1.7
The level of expressed mRNA in the presence of chemical substance/The level of expressed mRNA in the absence of chemical substance (yeast gene YMR073C, cells incubated two hours with the chemical substance): 0.9
The level of expressed mRNA in the presence of chemical substance/The level of expressed mRNA in the absence of chemical substance (yeast gene YMR089C): 1.2
The level of expressed mRNA in the presence of chemical substance/The level of expressed mRNA in the absence of chemical substance (yeast gene YMR105C): 2.8
The level of expressed mRNA in the presence of chemical substance/The level of expressed mRNA in the absence of chemical substance (yeast gene YMR118C): 2.0
The level of expressed mRNA in the presence of chemical substance/The level of expressed mRNA in the absence of chemical substance (yeast gene YMR205C, cells incubated two hours with the chemical substance): 1.2
The level of expressed mRNA in the presence of chemical substance/The level of expressed mRNA in the absence of chemical substance (yeast gene YMR261C, cells incubated two hours with the chemical substance): 0.6
The level of expressed mRNA in the presence of chemical substance/The level of expressed mRNA in the absence of chemical substance (yeast gene YMR267W, cells incubated two hours with the chemical substance, 25° C., YPD medium): 1.4
The level of expressed mRNA in the presence of chemical substance/The level of expressed mRNA in the absence of chemical substance (yeast gene YMR323W, cells incubated two hours with the chemical substance): 0.4
The level of expressed mRNA in the presence of chemical substance/The level of expressed mRNA in the absence of chemical substance (yeast gene YNL071W): 1.3
The level of expressed mRNA in the presence of chemical substance/The level of expressed mRNA in the absence of chemical substance (yeast gene YNL202W, cells incubated two hours with the chemical substance): 2.0
The level of expressed mRNA in the presence of chemical substance/The level of expressed mRNA in the absence of chemical substance (yeast gene YNL237W): 4.6
The level of expressed mRNA in the presence of chemical substance/The level of expressed mRNA in the absence of chemical substance (yeast gene YNL241C): 0.9
The level of expressed mRNA in the presence of chemical substance/The level of expressed mRNA in the absence of chemical substance (yeast gene YNL331C): 1.8
The level of expressed mRNA in the presence of chemical substance/The level of expressed mRNA in the absence of chemical substance (yeast gene YOL086C, cells incubated two hours with the chemical substance): 1.7
The level of expressed mRNA in the presence of chemical substance/The level of expressed mRNA in the absence of chemical substance (yeast gene YOL165C): 1.7
The level of expressed mRNA in the presence of chemical substance/The level of expressed mRNA in the absence of chemical substance (yeast gene YOR142W, cells incubated two hours with the chemical substance): 1.6
The level of expressed mRNA in the presence of chemical substance/The level of expressed mRNA in the absence of chemical substance (yeast gene YOR178C, cells incubated two hours with the chemical substance): 2.7
The level of expressed mRNA in the presence of chemical substance/The level of expressed mRNA in the absence of chemical substance (yeast gene YOR388C, cells incubated two hours with the chemical substance): 1.4
The level of expressed mRNA in the presence of chemical substance/The level of expressed mRNA in the absence of chemical substance (yeast gene YPL031C, cells incubated two hours with the chemical substance): 1.8
The level of expressed mRNA in the presence of chemical substance/The level of expressed mRNA in the absence of chemical substance (yeast gene YPL061W, cells incubated two hours with the chemical substance): 1.7
The level of expressed mRNA in the presence of chemical substance/The level of expressed mRNA in the absence of chemical substance (yeast gene YPL088W): 7.1
The level of expressed mRNA in the presence of chemical substance/The level of expressed mRNA in the absence of chemical substance (yeast gene YPL171C): 1.3
The level of expressed mRNA in the presence of chemical substance/The level of expressed mRNA in the absence of chemical substance (yeast gene YPL240C): 1.2
The level of expressed mRNA in the presence of chemical substance/The level of expressed mRNA in the absence of chemical substance (yeast gene YPL262W, cells incubated two hours with the chemical substance): 1.6
The level of expressed mRNA in the presence of chemical substance/The level of expressed mRNA in the absence of chemical substance (yeast gene YPL275W, cells incubated two hours with the chemical substance): 1.0
The level of expressed mRNA in the presence of chemical substance/The level of expressed mRNA in the absence of chemical substance (yeast gene YPL276W, cells incubated two hours with the chemical substance): 1.1
The level of expressed mRNA in the presence of chemical substance/The level of expressed mRNA in the absence of chemical substance (yeast gene YPR048W, cells incubated two hours with the chemical substance): 0.6
The level of expressed mRNA in the presence of chemical substance/The level of expressed mRNA in the absence of chemical substance (yeast gene YPR184W, cells incubated two hours with the chemical substance): 1.5
